{"source": "patent US20130072430A1", "about": "“METHODS FOR TREATMENT OR PROPHYLAXIS OF KIDNEY OR LIVER DYSFUNCTION” (NPS PHARMACEUTICALS, INC., priority 2010, published 2013)", "system": "Human patients with short bowel syndrome", "assay": "Example 1: kidney diagnostic biomarkers (urea nitrogen, creatinine, GFR) in short bowel syndrome patients, every four weeks for 24 weeks", "assay_type": "in vivo", "method": "Human patients with short bowel syndrome were divided into three groups: a control group (16 total individuals) to receive placebo, an experimental group (35 total individuals) to receive teduglutide at 0.05 mg/kg/day throughout the study, and an experimental group (32 total individuals) to receive teduglutide at 0.1 mg/kg/day throughout the study. Patients were treated by subcutaneous injection of placebo or the appropriate dose of teduglutide. As individuals with short bowel syndrome are likely to experience associated liver and kidney disease, known biomarkers of liver and kidney function were monitored every four weeks, for 24 weeks. The liver biomarkers tested included total bilirubin, ALT and AST and ALP. The kidney biomarkers tested included urea nitrogen, creatinine and GFR. Before administration of placebo or teduglutide, diagnostic biomarker levels were tested to establish a baseline for each individual.\nTo visualize the effect of GLP-2 on the levels of the diagnostic biomarkers, the average change from baseline was calculated for the placebo and teduglutide treated groups for each visit after a baseline was established. The average change from baseline of each group is depicted in FIGS. […]. The numerical figures for each diaanostic biomarker at each time point are depicted in Table 1.\nThe raw data for this sorting is reproduced in Table 2 below.", "key": {"[1]": {"settings": "Week 12, range >5%, teduglutide 0.1 mg/kg/day"}, "[2]": {"settings": "Week 12, range −5%<= and <=5%, teduglutide 0.05 mg/kg/day"}, "[3]": {"settings": "Week 12, range −5%<= and <=5%, teduglutide 0.1 mg/kg/day"}, "[4]": {"settings": "Week 16, range <−5%, teduglutide 0.05 mg/kg/day"}, "[5]": {"settings": "Week 16, range <−5%, teduglutide 0.1 mg/kg/day"}, "[6]": {"settings": "Week 16, range >5%, teduglutide 0.05 mg/kg/day"}, "[7]": {"settings": "Week 16, range >5%, teduglutide 0.1 mg/kg/day"}, "[8]": {"settings": "Week 16, range −5%<= and <=5%, teduglutide 0.05 mg/kg/day"}, "[9]": {"settings": "Week 16, range −5%<= and <=5%, teduglutide 0.1 mg/kg/day"}, "[10]": {"settings": "Week 20, range <−5%, teduglutide 0.05 mg/kg/day"}, "[11]": {"settings": "Week 20, range <−5%, teduglutide 0.1 mg/kg/day"}, "[12]": {"settings": "Week 20, range >5%, teduglutide 0.05 mg/kg/day"}, "[13]": {"settings": "Week 20, range >5%, teduglutide 0.1 mg/kg/day"}, "[14]": {"settings": "Week 20, range −5%<= and <=5%, teduglutide 0.05 mg/kg/day"}, "[15]": {"settings": "Week 20, range −5%<= and <=5%, teduglutide 0.1 mg/kg/day"}, "[16]": {"settings": "Week 24, range <−5%, teduglutide 0.05 mg/kg/day"}, "[17]": {"settings": "Week 24, range <−5%, teduglutide 0.1 mg/kg/day"}, "[18]": {"settings": "Week 24, range >5%, teduglutide 0.05 mg/kg/day"}, "[19]": {"settings": "Week 24, range >5%, teduglutide 0.1 mg/kg/day"}, "[20]": {"settings": "Week 24, range −5%<= and <=5%, teduglutide 0.05 mg/kg/day"}, "[21]": {"settings": "Week 24, range −5%<= and <=5%, teduglutide 0.1 mg/kg/day"}}, "data": [{"smiles": "CC[C@H](C)[C@H](NC(=O)[C@H](Cc1ccccc1)NC(=O)[C@H](CC(=O)O)NC(=O)[C@H](CCCNC(=N)N)NC(=O)[C@H](C)NC(=O)[C@H](C)NC(=O)[C@H](CC(C)C)NC(=O)[C@H](CC(N)=O)NC(=O)[C@H](CC(=O)O)NC(=O)[C@H](CC(C)C)NC(=O)[C@@H](NC(=O)[C@@H](NC(=O)[C@H](CC(N)=O)NC(=O)[C@H](CCSC)NC(=O)[C@H](CCC(=O)O)NC(=O)[C@H](CC(=O)O)NC(=O)[C@H](CO)NC(=O)[C@H](Cc1ccccc1)NC(=O)[C@H](CO)NC(=O)CNC(=O)[C@H](CC(=O)O)NC(=O)CNC(=O)[C@@H](N)Cc1c[nH]cn1)[C@@H](C)O)[C@@H](C)CC)C(=O)N[C@@H](CC(N)=O)C(=O)N[C@@H](Cc1c[nH]c2ccccc12)C(=O)N[C@@H](CC(C)C)C(=O)N[C@H](C(=O)N[C@@H](CCC(N)=O)C(=O)N[C@H](C(=O)N[C@@H](CCCCN)C(=O)N[C@H](C(=O)N[C@H](C(=O)N[C@@H](CC(=O)O)C(=O)O)[C@@H](C)O)[C@@H](C)CC)[C@@H](C)O)[C@@H](C)CC", "note": "[teduglutide]", "values": [{"measurement": "CREATININE (RATE BLANKED) change from baseline: patients in range, n(%)", "setting": "[1]", "value": "17(53.1%)"}, {"measurement": "GFR change from baseline: patients in range, n(%)", "setting": "[1]", "value": "9(28.1%)"}, {"measurement": "UREA NITROGEN change from baseline: patients in range, n(%)", "setting": "[1]", "value": "14(43.8%)"}, {"measurement": "CREATININE (RATE BLANKED) change from baseline: patients in range, n(%)", "setting": "[2]", "value": "4(11.4%)"}, {"measurement": "GFR change from baseline: patients in range, n(%)", "setting": "[2]", "value": "5(14.3%)"}, {"measurement": "UREA NITROGEN change from baseline: patients in range, n(%)", "setting": "[2]", "value": "4(11.4%)"}, {"measurement": "CREATININE (RATE BLANKED) change from baseline: patients in range, n(%)", "setting": "[3]", "value": "4(12.5%)"}, {"measurement": "GFR change from baseline: patients in range, n(%)", "setting": "[3]", "value": "10(31.3%)"}, {"measurement": "UREA NITROGEN change from baseline: patients in range, n(%)", "setting": "[3]", "value": "3(9.4%)"}, {"measurement": "CREATININE (RATE BLANKED) change from baseline: patients in range, n(%)", "setting": "[4]", "value": "8(22.9%)"}, {"measurement": "GFR change from baseline: patients in range, n(%)", "setting": "[4]", "value": "7(20.0%)"}, {"measurement": "UREA NITROGEN change from baseline: patients in range, n(%)", "setting": "[4]", "value": "12(34.3%)"}, {"measurement": "CREATININE (RATE BLANKED) change from baseline: patients in range, n(%)", "setting": "[5]", "value": "10(31.3%)"}, {"measurement": "GFR change from baseline: patients in range, n(%)", "setting": "[5]", "value": "12(37.5%)"}, {"measurement": "UREA NITROGEN change from baseline: patients in range, n(%)", "setting": "[5]", "value": "9(28.1%)"}, {"measurement": "CREATININE (RATE BLANKED) change from baseline: patients in range, n(%)", "setting": "[6]", "value": "8(22.9%)"}, {"measurement": "GFR change from baseline: patients in range, n(%)", "setting": "[6]", "value": "11(31.4%)"}, {"measurement": "UREA NITROGEN change from baseline: patients in range, n(%)", "setting": "[6]", "value": "10(28.6%)"}, {"measurement": "CREATININE (RATE BLANKED) change from baseline: patients in range, n(%)", "setting": "[7]", "value": "12(37.5%)"}, {"measurement": "GFR change from baseline: patients in range, n(%)", "setting": "[7]", "value": "12(37.5%)"}, {"measurement": "UREA NITROGEN change from baseline: patients in range, n(%)", "setting": "[7]", "value": "9(28.1%)"}, {"measurement": "CREATININE (RATE BLANKED) change from baseline: patients in range, n(%)", "setting": "[8]", "value": "12(34.3%)"}, {"measurement": "GFR change from baseline: patients in range, n(%)", "setting": "[8]", "value": "10(28.6%)"}, {"measurement": "UREA NITROGEN change from baseline: patients in range, n(%)", "setting": "[8]", "value": "6(17.1%)"}, {"measurement": "CREATININE (RATE BLANKED) change from baseline: patients in range, n(%)", "setting": "[9]", "value": "8(25.0%)"}, {"measurement": "GFR change from baseline: patients in range, n(%)", "setting": "[9]", "value": "6(18.8%)"}, {"measurement": "UREA NITROGEN change from baseline: patients in range, n(%)", "setting": "[9]", "value": "12(37.5%)"}, {"measurement": "CREATININE (RATE BLANKED) change from baseline: patients in range, n(%)", "setting": "[10]", "value": "9(25.7%)"}, {"measurement": "GFR change from baseline: patients in range, n(%)", "setting": "[10]", "value": "10(28.6%)"}, {"measurement": "UREA NITROGEN change from baseline: patients in range, n(%)", "setting": "[10]", "value": "13(37.1%)"}, {"measurement": "CREATININE (RATE BLANKED) change from baseline: patients in range, n(%)", "setting": "[11]", "value": "7(21.9%)"}, {"measurement": "GFR change from baseline: patients in range, n(%)", "setting": "[11]", "value": "11(34.4%)"}, {"measurement": "UREA NITROGEN change from baseline: patients in range, n(%)", "setting": "[11]", "value": "12(37.5%)"}, {"measurement": "CREATININE (RATE BLANKED) change from baseline: patients in range, n(%)", "setting": "[12]", "value": "10(28.6%)"}, {"measurement": "GFR change from baseline: patients in range, n(%)", "setting": "[12]", "value": "10(28.6%)"}, {"measurement": "UREA NITROGEN change from baseline: patients in range, n(%)", "setting": "[12]", "value": "7(20.0%)"}, {"measurement": "CREATININE (RATE BLANKED) change from baseline: patients in range, n(%)", "setting": "[13]", "value": "13(40.6%)"}, {"measurement": "GFR change from baseline: patients in range, n(%)", "setting": "[13]", "value": "8(25.0%)"}, {"measurement": "UREA NITROGEN change from baseline: patients in range, n(%)", "setting": "[13]", "value": "11(34.4%)"}, {"measurement": "CREATININE (RATE BLANKED) change from baseline: patients in range, n(%)", "setting": "[14]", "value": "8(22.9%)"}, {"measurement": "GFR change from baseline: patients in range, n(%)", "setting": "[14]", "value": "7(20.0%)"}, {"measurement": "UREA NITROGEN change from baseline: patients in range, n(%)", "setting": "[14]", "value": "7(20.0%)"}, {"measurement": "CREATININE (RATE BLANKED) change from baseline: patients in range, n(%)", "setting": "[15]", "value": "9(28.1%)"}, {"measurement": "GFR change from baseline: patients in range, n(%)", "setting": "[15]", "value": "10(31.3%)"}, {"measurement": "UREA NITROGEN change from baseline: patients in range, n(%)", "setting": "[15]", "value": "6(18.8%)"}, {"measurement": "CREATININE (RATE BLANKED) change from baseline: patients in range, n(%)", "setting": "[16]", "value": "8(22.9%)"}, {"measurement": "GFR change from baseline: patients in range, n(%)", "setting": "[16]", "value": "8(22.9%)"}, {"measurement": "CREATININE (RATE BLANKED) change from baseline: patients in range, n(%)", "setting": "[17]", "value": "11(34.4%)"}, {"measurement": "GFR change from baseline: patients in range, n(%)", "setting": "[17]", "value": "6(18.8%)"}, {"measurement": "UREA NITROGEN change from baseline: patients in range, n(%)", "setting": "[17]", "value": "14(43.8%)"}, {"measurement": "CREATININE (RATE BLANKED) change from baseline: patients in range, n(%)", "setting": "[18]", "value": "9(25.7%)"}, {"measurement": "GFR change from baseline: patients in range, n(%)", "setting": "[18]", "value": "10(28.6%)"}, {"measurement": "UREA NITROGEN change from baseline: patients in range, n(%)", "setting": "[18]", "value": "7(20.0%)"}, {"measurement": "CREATININE (RATE BLANKED) change from baseline: patients in range, n(%)", "setting": "[19]", "value": "9(28.1%)"}, {"measurement": "GFR change from baseline: patients in range, n(%)", "setting": "[19]", "value": "14(43.8%)"}, {"measurement": "UREA NITROGEN change from baseline: patients in range, n(%)", "setting": "[19]", "value": "13(40.6%)"}, {"measurement": "CREATININE (RATE BLANKED) change from baseline: patients in range, n(%)", "setting": "[20]", "value": "9(25.7%)"}, {"measurement": "GFR change from baseline: patients in range, n(%)", "setting": "[20]", "value": "8(22.9%)"}, {"measurement": "UREA NITROGEN change from baseline: patients in range, n(%)", "setting": "[20]", "value": "2(5.7%)"}, {"measurement": "CREATININE (RATE BLANKED) change from baseline: patients in range, n(%)", "setting": "[21]", "value": "9(28.1%)"}, {"measurement": "GFR change from baseline: patients in range, n(%)", "setting": "[21]", "value": "9(28.1%)"}, {"measurement": "UREA NITROGEN change from baseline: patients in range, n(%)", "setting": "[21]", "value": "2(6.3%)"}, {"measurement": "percent of the group experiencing a decrease in GFR greater than 5% versus placebo", "setting": "both groups receiving teduglutide", "value": "always less than the percent of the group receiving placebo"}, {"measurement": "creatinine levels, average change versus baseline (FIG. 9)", "setting": "groups receiving teduglutide", "value": "remained stable or decreased slightly"}]}]}
